From US11427586B2, “1,2,4-oxadiazole derivatives as liver X receptor agonists” (NOVARTIS AG, priority 2019, dated 2022)
Like-named read-outs stand apart in the source and are kept apart here.

Legend:
[1] = tested on: SCD1; experiment: Measurement of SCD1 expression in SZ95-SCD1-HiBit cells (HiBiT assay); assay type: cell-based; settings: Homo sapiens, 48 h; for EC50: SCD1 protein production, luminescence, initial dilution 1:3 in DMSO, read-out: HiBit EC50
[2] = tested on: SZ95 sebocytes; experiment: Sentinel Lipid Assay (SLA), desaturation index in SZ95 sebocytes; assay type: cell-based; settings: Homo sapiens, 72 h; for EC50: desaturation index, lowest dose used 4.6 nM, read-out: SLA EC50
Outline: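 SZ95 human sebocytes on fibronectin-coated plates, dosed 72 h at 37 °C with 1:3 dilutions from 10 μM; lipids extracted with deuterated triglyceride internal standards and quantified by LC-MS/MS (MRM) as 11 sentinel lipids. Desaturation index from elastic-net coefficients, normalized to DMSO; Amax relative to a reference LXR agonist.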

[3] = normalized Amax based on the reference compound Amax of 100%, read-out: HiBit Normalized Amax
[4] = SZ95-SCD1-HiBit cells, compared to reference compound, read-out: HiBit Amax
[5] = normalized Amax based on the reference compound Amax of 100%, read-out: SLA Normalized Amax
[6] = SZ95 cells, compared to reference compound, read-out: SLA Amax

Structure (SMILES) | Emax [1, 3] [%] | EC50 ([1]; SZ95-SCD1-HiBit cells) [nM] | Emax [1, 4] [%] | Emax [2, 5] [%] | EC50 ([2]; SZ95 cells) [nM] | Emax [2, 6] [%]
COCCN(CCOC)CCS(=O)(=O)c1ccccc1Oc1ccc(-c2noc(CN3C(=O)N(CCN4CCOCC4)C(C)(C)C3=O)n2)cc1C(F)(F)F [Compound 61, 3-((3-(4-(2-((2-(bis(2-methoxyethyl)amino)ethyl)sulfonyl)phenoxy)-3-(trifluoromethyl)phenyl)-1,2,4-oxadiazol-5-yl)methyl)-5,5-dimethyl-1-(2-morpholinoethyl)imidazolidine-2,4-dione] | 78.9 | 9.1 | 75 | 178 | ≤ 4.6 | 171
O=C1N(Cc2nc(-c3ccc(Oc4ccccc4S(=O)(=O)CC4CCCO4)c(C(F)(F)F)c3)no2)C(=O)C2(CCN(C3CCC3)CC2)N1CCC1CCOCC1 (stereo not drawn) [Compound 19, 8-cyclobutyl-1-(2-(tetrahydro-2H-pyran-4-yl)ethyl)-3-((3-(4-(2-(((tetrahydrofuran-2-yl)methyl)sulfonyl)phenoxy)-3-(trifluoromethyl)phenyl)-1,2,4-oxadiazol-5-yl)methyl)-1,3,8-triazaspiro[4.5]decane-2,4-dione] | 194 | 0.042 | 184 | 146 | ≤ 4.6 | 140
COCCS(=O)(=O)c1ccccc1Oc1ccc(-c2noc(CN3C(=O)N(CC4CC4)C(C)(C)C3=O)n2)cc1C(F)(F)F [Compound 54, 1-(cyclopropylmethyl)-3-((3-(4-(2-((2-methoxyethyl)sulfonyl)phenoxy)-3-(trifluoromethyl)phenyl)-1,2,4-oxadiazol-5-yl)methyl)-5,5-dimethylimidazolidine-2,4-dione] | 84.9 | 3.86 | 80.7 | 157 | ≤ 4.6 | 151
CC(C)CS(=O)(=O)c1ccccc1Oc1ccc(-c2noc(CN3C(=O)N(CCN4CCOCC4)C4(CCN(Cc5ccc(O)cc5)CC4)C3=O)n2)cc1C(F)(F)F [Compound 20, 8-(4-hydroxybenzyl)-3-((3-(4-(2-(isobutylsulfonyl)phenoxy)-3-(trifluoromethyl)phenyl)-1,2,4-oxadiazol-5-yl)methyl)-1-(2-morpholinoethyl)-1,3,8-triazaspiro[4.5]decane-2,4-dione] | 93.7 | 0.078 | 89.1 | 155 | ≤ 4.6 | 149
O=C1N(Cc2nc(-c3ccc(Oc4ccccc4S(=O)(=O)CC4CCCO4)c(C(F)(F)F)c3)no2)C(=O)C2(CCOCC2)N1CCN1CCOCC1 (stereo not drawn) [Compound 56, 1-(2-morpholinoethyl)-3-((3-(4-(2-(((tetrahydrofuran-2-yl)methyl)sulfonyl)phenoxy)-3-(trifluoromethyl)phenyl)-1,2,4-oxadiazol-5-yl)methyl)-8-oxa-1,3-diazaspiro[4.5]decane-2,4-dione] | 76.6 | 1.01 | 72.8 | 187 | ≤ 4.6 | 180
CC(C)CS(=O)(=O)c1ccccc1Oc1ccc(-c2noc(CN3C(=O)N(CCN4CCOCC4)C4(CCN(C(=O)CC5CC5)CC4)C3=O)n2)cc1C(F)(F)F [Compound 28, 8-(2-cyclopropylacetyl)-3-((3-(4-(2-(isobutylsulfonyl)phenoxy)-3-(trifluoromethyl)phenyl)-1,2,4-oxadiazol-5-yl)methyl)-1-(2-morpholinoethyl)-1,3,8-triazaspiro[4.5]decane-2,4-dione] | 74.8 | 0.697 | 71.1 | 145 | ≤ 4.6 | 139
CC(C)CS(=O)(=O)c1ccccc1Oc1ccc(-c2noc(CN3C(=O)N(CCN4CCOCC4)C(C)(C)C3=O)n2)cc1Cl [Compound 49, 3-((3-(3-chloro-4-(2-(isobutylsulfonyl)phenoxy)phenyl)-1,2,4-oxadiazol-5-yl)methyl)-5,5-dimethyl-1-(2-morpholinoethyl)imidazolidine-2,4-dione] | 74.6 | 11.9 | 70.9 | 114 | 40.6 | 110
CC(C)CS(=O)(=O)c1ccccc1Oc1ccc(-c2noc(CN3C(=O)N(CCC4CCOCC4)C4(CCN(C(=O)c5cncnc5)CC4)C3=O)n2)cc1C(F)(F)F [Compound 37, 3-((3-(4-(2-(isobutylsulfonyl)phenoxy)-3-(trifluoromethyl)phenyl)-1,2,4-oxadiazol-5-yl)methyl)-8-(pyrimidine-5-carbonyl)-1-(2-(tetrahydro-2H-pyran-4-yl)ethyl)-1,3,8-triazaspiro[4.5]decane-2,4-dione] | 91.8 | 0.066 | 87.3 | 145 | ≤ 4.6 | 140
CC1(C)C(=O)N(Cc2nc(-c3ccc(Oc4ccccc4S(=O)(=O)C4CC(O)C4)c(C(F)(F)F)c3)no2)C(=O)N1CCN1CCOCC1 (stereo not drawn) [Compound 39, 3-((3-(4-(2-((3-hydroxycyclobutyl)sulfonyl)phenoxy)-3-(trifluoromethyl)phenyl)-1,2,4-oxadiazol-5-yl)methyl)-5,5-dimethyl-1-(2-morpholinoethyl)imidazolidine-2,4-dione] | 93.9 | 1.4 | 89.3 | 170 | ≤ 4.6 | 164
CC(C)CS(=O)(=O)c1ccccc1Oc1ccc(-c2noc(CN3C(=O)N(CCN4CCOCC4)C4(CCN(Cc5cccnn5)CC4)C3=O)n2)cc1C(F)(F)F [Compound 25, 3-((3-(4-(2-(isobutylsulfonyl)phenoxy)-3-(trifluoromethyl)phenyl)-1,2,4-oxadiazol-5-yl)methyl)-1-(2-morpholinoethyl)-8-(pyridazin-3-ylmethyl)-1,3,8-triazaspiro[4.5]decane-2,4-dione] | 98.2 | 1.62 | 93.4 | 190 | ≤ 4.6 | 182
CC1(C)C(=O)N(Cc2nc(-c3ccc(Oc4ccccc4C(F)(F)F)c(C(F)(F)F)c3)no2)C(=O)N1CCN1CCOCC1 [Compound 41, 5,5-dimethyl-1-(2-morpholinoethyl)-3-((3-(3-(trifluoromethyl)-4-(2-(trifluoromethyl)phenoxy)phenyl)-1,2,4-oxadiazol-5-yl)methyl)imidazolidine-2,4-dione] | 93 | 0.167 | 88.4 | 92.2 | ≤ 4.6 | 88.5
CCCC1(C)C(=O)N(Cc2nc(-c3ccc(Oc4ccccc4S(=O)(=O)CC(C)C)c(C(F)(F)F)c3)no2)C(=O)N1CCN1CCOCC1 (stereo not drawn) [Compound 2, 3-((3-(4-(2-(isobutylsulfonyl)phenoxy)-3-(trifluoromethyl)phenyl)-1,2,4-oxadiazol-5-yl)methyl)-5-methyl-1-(2-morpholinoethyl)-5-propylimidazolidine-2,4-dione] | 95.2 | 1.5 | 90.5 | 190 | ≤ 4.6 | 182
O=C1N(Cc2nc(-c3ccc(Oc4ccccc4C(F)(F)F)c(C(F)(F)F)c3)no2)C(=O)C2(CCN(C3CCC3)CC2)N1CCC1CCOCC1 [Compound 12, 8-cyclobutyl-1-(2-(tetrahydro-2H-pyran-4-yl)ethyl)-3-((3-(3-(trifluoromethyl)-4-(2-(trifluoromethyl)phenoxy)phenyl)-1,2,4-oxadiazol-5-yl)methyl)-1,3,8-triazaspiro[4.5]decane-2,4-dione] | 81.9 | 0.081 | 77.9 | 130 | ≤ 4.6 | 125
